Measurements taken from paper PMC8262977, “A Dual-Specificity Inhibitor Targets Polyphosphate Kinase 1 and 2 Enzymes To Attenuate Virulence of Pseudomonas aeruginosa” (mBio, 2021).

Assays:
[1] = test system: P. aeruginosa PA14; experiment: Pyocyanin quantification (absorbance at 520 nm); type: cell-based, Pseudomonas aeruginosa
Experimental: Fifty-milliliter P. aeruginosa cultures in 2.5% (wt/vol) LB (Miller; Bioshop) were grown to stationary phase in 125-ml Erlenmeyer flasks with 180-rpm shaking at 37°C for 18 h. Cultures were centrifuged at 18,000 rpm for 30 min to clarify the supernatant, which was then filter sterilized. Pyoverdine was quantified spectrophotometrically at 403 nm as described previously ([55]). Pyocyanin was extracted via chloroform and treated with HCl to yield a red product that was quantified at 520 nm ([55]). To account for any colorimetric interference by inhibitors, cell-free blank readings were subtracted from each sample.

[2] = test system: P. aeruginosa; experiment: Bacterial CFU accumulation in the C. elegans gut; type: in vivo, Caenorhabditis elegans
Experimental: (§1) Wild-type N2 C. elegans and the glp-4 conditionally sterile mutant strain were obtained from the Caenorhabditis Genetics Center. Liquid killing assays were conducted using glp-4 mutant worms as described previously ([35]), with the exception of survival being scored manually under a Zeiss light microscope instead of via Sytox Orange staining. Nematodes were scored as dead when they no longer moved when tapped. Solid killing was conducted using glp-4 as described previously ([34]), with the indicated concentration of inhibitor impregnated into the SK agar. Bacterial CFU accumulation in WT N2 worms was quantified as described previously ([56]). Briefly, age-synchronized embryos were spotted onto bacterium-seeded nematode growth medium (NGM) agar plates impregnated with inhibitor or DMSO. Embryos were incubated at 25°C for 3 days, after which point adult worms were harvested, washed, lysed, and enumerated for CFU.

[3] = test system: P. aeruginosa; experiment: microbe, parasite or virus in culture; type: cell-based, Pseudomonas aeruginosa; conditions: 100 μM gallein, LK medium
[4] = test system: P. aeruginosa; experiment: C. elegans liquid killing (LK) infection assay; type: in vivo, Caenorhabditis elegans; conditions: 100 μM gallein
Experimental: as §1

[5] = test system: HEK293T cells; experiment: HEK293T cytotoxicity assay, trypan blue; type: cell-based, human; conditions: concentrations up to 100 μM, 48 h incubation
Experimental: HEK293 cells were grown in Dulbecco’s modified Eagle’s medium supplemented with 10% fetal bovine serum at 5% CO2 and 37°C. Cells were grown until a confluent monolayer was formed in 12-well culture plates, at which point inhibitors or DMSO was added. After 48-h incubation, cells were detached with trypsin and percent viability was scored via a hemocytometer and trypan blue staining.

[6] = test system: P. aeruginosa PA14; experiment: Swimming motility assay; type: cell-based, Pseudomonas aeruginosa
Experimental: Swimming motility plates consisted of 0.3% (wt/vol) Bacto agar (Becton Dickinson) and 2.5% (wt/vol) LB (Miller; Bioshop). Where indicated, 100 μM compound or an equivalent volume of DMSO was added to the agar prior to pouring. Plates were stab inoculated with a pipette tip dipped in overnight LB culture. Plates were incubated in sealed Tupperware at 30°C for 18 h, and swimming diameter was imaged and measured electronically.

[7] = test system: P. aeruginosa PA14; experiment: Bacterial growth kinetics (OD600); type: cell-based, Pseudomonas aeruginosa
Text: FIG 3 Gallein phenocopies ppk deletion to attenuate P. aeruginosa swimming motility. (A) Representative image of swimming motility. (B) Quantification of the effects of gallein treatment and ppk gene deletion on swimming motility. (C) PA14 growth kinetics in the presence and absence of gallein in lysogeny broth (equivalent in composition to swim plates, minus the agar). ns, P > 0.05; *, P < 0.05; **, P < 0.01; ***, P < 0.001 (two-way ANOVA, Tukey’s multiple-comparison test, n = 3). All data points are the average from triplicates; error bars are ±standard deviation.
Supplementary file : FIG S4 Growth curves of P. aeruginosa WT and ΔpolyP in M63 biofilm medium (A) and liquid killing C. elegans assay medium (B). Gallein, or an equivalent volume of DMSO, was added to a 100 μM final concentration. OD600 monitored in triplicate cultures grown in 96-well plates at 37°C following colony inoculation. Error bars ± standard deviation. Download FIG S4, TIF file, 2.5 MB.

[8] = biological target: T1, P. aeruginosa PPK2C (Pseudomonas aeruginosa, UniProt Q9HYF1); experiment: PPK2C AMP phosphorylation by polyP (ADP synthesis), toluidine blue detection; type: biochemical; conditions: ADP synthesis from AMP and polyP; 275 nM enzyme; read-out: IC50 PPK2C
T1 construct: MBP (N, cleaved yes); His tag (N, cleaved yes); made in house; host or cells: E. coli BL21(DE3)
T1 sequence (Q9HYF1 whole entry): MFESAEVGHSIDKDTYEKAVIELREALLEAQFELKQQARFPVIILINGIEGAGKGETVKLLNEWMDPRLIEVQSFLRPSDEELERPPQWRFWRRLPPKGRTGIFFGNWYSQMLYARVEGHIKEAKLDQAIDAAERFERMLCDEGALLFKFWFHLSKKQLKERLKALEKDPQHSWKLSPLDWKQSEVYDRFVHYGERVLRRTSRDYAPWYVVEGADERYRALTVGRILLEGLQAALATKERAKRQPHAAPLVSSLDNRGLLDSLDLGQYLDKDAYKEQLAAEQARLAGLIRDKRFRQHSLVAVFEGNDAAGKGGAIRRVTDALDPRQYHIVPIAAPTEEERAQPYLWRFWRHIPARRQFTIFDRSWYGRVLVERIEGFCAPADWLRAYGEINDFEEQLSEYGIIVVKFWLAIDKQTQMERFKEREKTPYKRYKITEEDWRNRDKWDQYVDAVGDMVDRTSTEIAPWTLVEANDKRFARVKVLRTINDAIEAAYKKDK
Experimental: All IC50 and kinetic assay mixtures contained equimolar amounts (275 nM) of PPK to ensure valid comparison between different enzymes. PolyP synthesis activity (for PPK1 and PPK2B) was assayed using the reaction buffer and conditions described above. ATP concentration was varied as indicated for kinetic experiments. Curves were fit using GraphPad Prism V9.
Nucleotide phosphorylation activity of PPK2 enzymes was assayed in buffer containing 50 mM Tris-HCl, pH 7.5, 10 mM (NH4)2SO4, 10 mM MgCl2, 5 mM polyP45 (Sigma; in terms of individual Pi monomers), and nucleotide (ADP or AMP) at 5 mM for IC50 reactions or as indicated for kinetic experiments. Enzyme was added to a final concentration of 275 nM in 100-μl reaction volumes. One-hundred-microliter reaction mixtures were incubated at 37°C for 30 min, and then 5-μl aliquots were withdrawn and added to 1,000 μl of 6-mg/liter toluidine blue dissolved in 40 mM acetic acid to quench the reaction and quantify the polyP that remained. The A630/530 nm ratio was then recorded, and the values obtained were corrected by subtracting the corresponding blanks (all ingredients except enzyme). The amount of polyP consumed was calculated by subtracting the amount present after reaction from that present in the initial reaction mix, as calculated via a standard curve. Each monomer of Pi consumed from polyP equates to one nucleoside phosphorylated. Curves were fit using GraphPad Prism V9.

[9] = WT: DMSO control vs 100 µM gallein
[10] = ∆ppk1: DMSO control vs 100 µM gallein

## O=C1OC2(c3ccccc31)c1ccc(O)c(O)c1Oc1c2ccc(O)c1O [RT4 (gallein), gallein]
[1]; WT, Δppk1 and Δppk2 strains
  pyocyanin production: reproduced the marked pyoverdine and pyocyanin defects observed in the ΔpolyP strain
[1]; [9]
  Pyocyanin, Mean Diff.: 0.2097
[1]; ΔpolyP strain
  pyocyanin production: no significant decrease of either toxin
[1]; ∆ppk1, 2a, 2b, 2c: DMSO control vs 100 µM gallein
  Pyocyanin, Mean Diff.: 0.07567
[1]; [10]
  Pyocyanin, Mean Diff.: 0.08867
[1]; ∆ppk2a, 2b, 2c: DMSO control vs 100 µM gallein
  Pyocyanin, Mean Diff.: 0.2097
[2]; WT strain
  bacterial accumulation in the nematode gut: reduced bacterial accumulation in the nematode gut
[2]; [9]
  C. elegans accumulation CFU, Mean Diff.: 783.3
[2]; ΔpolyP strain
  bacterial accumulation in the nematode gut (CFU): no additional decrease in CFU
[2]; Δppk1 strain
  bacterial accumulation in the nematode gut: further reduced bacterial accumulation
[2]; ∆polyP: DMSO control vs 100 µM gallein
  C. elegans accumulation CFU, Mean Diff.: -33.33
[2]; [10]
  C. elegans accumulation CFU, Mean Diff.: 446.7
[3]
  effect on the MIC of tetracycline or ciprofloxacin: did not alter the MIC
[4]
  C. elegans survival: significantly improved survival rates
[5]
  cytotoxicity: noncytotoxic
[6]; WT, 100 μM in agar
  flagellum-based swimming motility: faithfully reproduced in WT P. aeruginosa the defect in flagellum-based swimming motility observed in the ΔpolyP strain
[6]; [9]
  swimming motility, Mean Diff.: 2
[6]; Δppk1, 2a, 2b, 2c: DMSO control vs 100 µM gallein
  swimming motility, Mean Diff.: -0.1
[6]; Δppk1: DMSO control vs 100 µM gallein
  swimming motility, Mean Diff.: 1.05
[6]; Δppk2a, 2b, 2c: DMSO control vs 100 µM gallein
  swimming motility, Mean Diff.: 0.65
[7]; LK conditions, 100 μM
  growth kinetics: near-WT growth kinetics
[7]; biofilm assay conditions (M63 medium), 100 μM
  planktonic growth rate: did not affect the planktonic growth rate
[7]; lysogeny broth
  bacterial growth kinetics: did not affect bacterial growth kinetics
[8]
  IC50: 165 ± 5 µM
